According to ChEMBL document CHEMBL1201862, “PubChem BioAssay data set” (2004):
Calls of active or inactive are those of the source.

Legend:
[1] = biological target: G-protein coupled receptor 55 (Homo sapiens, UniProt Q9Y2T6); assay: GPR55 antagonists blocking LPI-driven arrestin recruitment, primary screen, imaging, U2OS, beta-arrestin-GFP, LPI agonist (AID 2013); format: functional;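 further: antagonist potency measured as reduced agonist-driven arrestin aggregation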
Cannabinoid receptor 1 [2] = biological target: T1, Cannabinoid receptor 1 (Homo sapiens, UniProt P21554); assay: SAR analysis of antagonists of the Cannabinoid Receptor 1 using an Image-Based Assay - Set 2. [Related pubchem assays (depositor defined):AID2013, AID2026]; format: functional
[3] = biological target: T2, G-protein coupled receptor 35 (Homo sapiens, UniProt Q9HC97); assay: SAR analysis of Agonists of the GPR35 Receptor using an Image-Based Assay - Set 2. [Related pubchem assays (depositor defined):AID2013, AID2026]; format: functional
Cannabinoid receptor 2 [4] = biological target: T3, Cannabinoid receptor 2 (Homo sapiens, UniProt P34972); assay: SAR analysis of antagonists of the Cannabinoid Receptor 2 using an Image-Based Assay. [Related pubchem assays (depositor defined):AID2013, AID2026]; format: functional
Cannabinoid receptor 1 [5] = biological target: T1, Cannabinoid receptor 1; assay: SAR analysis of agonists of the Cannabinoid Receptor 1 using an Image-Based Assay - Set 2. [Related pubchem assays (depositor defined):AID2013, AID2026]; format: functional
[6] = biological target: T2, G-protein coupled receptor 35; assay: SAR analysis of Antagonists of the GPR35 Receptor using an Image-Based Assay - Set 3. [Related pubchem assays (depositor defined):AID2013, AID2026]; format: functional
Cannabinoid receptor 2 [7] = biological target: T3, Cannabinoid receptor 2; assay: SAR analysis of agonists of the Cannabinoid Receptor 2 using an Image-Based Assay. [Related pubchem assays (depositor defined):AID2013, AID2026]; format: functional
[8] = biological target: T4, Replicative DNA helicase DnaB (Mycobacterium tuberculosis, UniProt P9WMR3); assay: DnaB intein splicing inhibitors, dose response, biochemical, cell-free fluorescence (AID 449749); format: functional
T4 sequence (P9WMR3 whole entry): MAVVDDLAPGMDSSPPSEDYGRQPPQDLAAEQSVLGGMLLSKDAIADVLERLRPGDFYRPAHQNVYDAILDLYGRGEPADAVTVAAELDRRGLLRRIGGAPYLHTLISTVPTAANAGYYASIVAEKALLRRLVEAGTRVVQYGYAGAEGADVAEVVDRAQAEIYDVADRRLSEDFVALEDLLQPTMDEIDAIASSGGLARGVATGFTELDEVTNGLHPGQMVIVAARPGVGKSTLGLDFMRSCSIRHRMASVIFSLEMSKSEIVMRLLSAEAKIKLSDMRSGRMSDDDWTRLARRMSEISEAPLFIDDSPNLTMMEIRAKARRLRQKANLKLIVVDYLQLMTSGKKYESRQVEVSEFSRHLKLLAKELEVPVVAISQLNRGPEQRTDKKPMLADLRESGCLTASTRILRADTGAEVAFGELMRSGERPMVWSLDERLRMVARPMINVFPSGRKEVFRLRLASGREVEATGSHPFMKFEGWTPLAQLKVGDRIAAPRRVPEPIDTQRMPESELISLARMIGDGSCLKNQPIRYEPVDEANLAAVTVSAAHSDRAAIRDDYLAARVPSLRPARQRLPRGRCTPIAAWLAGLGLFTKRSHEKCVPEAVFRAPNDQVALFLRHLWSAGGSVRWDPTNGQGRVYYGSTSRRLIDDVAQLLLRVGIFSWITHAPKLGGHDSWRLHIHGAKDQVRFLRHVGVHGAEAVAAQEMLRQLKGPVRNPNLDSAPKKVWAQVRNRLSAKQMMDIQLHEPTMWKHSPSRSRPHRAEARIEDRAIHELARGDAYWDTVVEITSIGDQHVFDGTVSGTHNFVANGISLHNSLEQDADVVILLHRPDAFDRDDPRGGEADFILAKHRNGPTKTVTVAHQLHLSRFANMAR

Protein RecA = biological target: T5, Protein RecA (Mycobacterium tuberculosis, UniProt P9WHJ3); assay: Fluorescence Cell-Free Homogeneous Dose Retest to Identify Inhibitors of RecA-Intein Splicing Activity. [Related pubchem assays (depositor defined):AID2097, AID2223, AID489010, AID492950]; format: functional
T5 sequence (P9WHJ3 whole entry): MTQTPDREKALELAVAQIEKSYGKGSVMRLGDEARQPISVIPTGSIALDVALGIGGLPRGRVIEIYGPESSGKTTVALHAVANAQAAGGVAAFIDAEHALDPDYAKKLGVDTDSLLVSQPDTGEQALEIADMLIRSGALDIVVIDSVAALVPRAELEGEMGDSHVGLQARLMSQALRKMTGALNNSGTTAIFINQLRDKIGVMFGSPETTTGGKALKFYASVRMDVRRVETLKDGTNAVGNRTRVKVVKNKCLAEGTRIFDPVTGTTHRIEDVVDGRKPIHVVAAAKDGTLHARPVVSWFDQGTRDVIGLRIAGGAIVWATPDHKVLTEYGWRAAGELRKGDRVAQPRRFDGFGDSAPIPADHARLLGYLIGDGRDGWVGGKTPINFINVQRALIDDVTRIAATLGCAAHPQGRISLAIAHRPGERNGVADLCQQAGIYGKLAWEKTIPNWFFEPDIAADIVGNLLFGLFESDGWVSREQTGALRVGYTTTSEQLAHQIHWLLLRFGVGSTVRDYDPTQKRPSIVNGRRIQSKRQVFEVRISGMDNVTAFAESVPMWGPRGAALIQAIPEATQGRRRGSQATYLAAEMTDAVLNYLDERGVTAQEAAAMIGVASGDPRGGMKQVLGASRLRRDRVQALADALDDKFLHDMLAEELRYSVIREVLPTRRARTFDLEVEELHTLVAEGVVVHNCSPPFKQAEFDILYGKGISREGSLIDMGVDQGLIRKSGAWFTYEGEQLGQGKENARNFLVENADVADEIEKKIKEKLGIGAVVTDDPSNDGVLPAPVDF

[9] = biological target: T6, RNA-binding protein pos-1 (Caenorhabditis elegans, UniProt G5EF15); assay: inhibitors of POS-1/mex-3 RNA binding, dose response, biochemical, fluorescence polarization (AID 1964);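 further: purified POS-1 fused to maltose binding protein made in E. coli; potency of compounds blocking POS-1 binding to fluorescent RNA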
T6 sequence (G5EF15 whole entry): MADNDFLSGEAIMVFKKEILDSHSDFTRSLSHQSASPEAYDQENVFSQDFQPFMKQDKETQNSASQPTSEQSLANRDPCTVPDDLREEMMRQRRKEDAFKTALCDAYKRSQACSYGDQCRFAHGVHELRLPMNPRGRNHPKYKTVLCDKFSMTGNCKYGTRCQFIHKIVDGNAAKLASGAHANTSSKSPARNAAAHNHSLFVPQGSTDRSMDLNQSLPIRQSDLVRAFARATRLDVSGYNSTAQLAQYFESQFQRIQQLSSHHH

[10] = biological target: T7, Zinc finger protein mex-5 (Caenorhabditis elegans, UniProt Q9XUB2); assay: MEX-5/TCR-2 RNA interaction inhibitors, dose response, biochemical, C. elegans, fluorescence polarization (AID 1960)
T7 sequence (Q9XUB2 whole entry): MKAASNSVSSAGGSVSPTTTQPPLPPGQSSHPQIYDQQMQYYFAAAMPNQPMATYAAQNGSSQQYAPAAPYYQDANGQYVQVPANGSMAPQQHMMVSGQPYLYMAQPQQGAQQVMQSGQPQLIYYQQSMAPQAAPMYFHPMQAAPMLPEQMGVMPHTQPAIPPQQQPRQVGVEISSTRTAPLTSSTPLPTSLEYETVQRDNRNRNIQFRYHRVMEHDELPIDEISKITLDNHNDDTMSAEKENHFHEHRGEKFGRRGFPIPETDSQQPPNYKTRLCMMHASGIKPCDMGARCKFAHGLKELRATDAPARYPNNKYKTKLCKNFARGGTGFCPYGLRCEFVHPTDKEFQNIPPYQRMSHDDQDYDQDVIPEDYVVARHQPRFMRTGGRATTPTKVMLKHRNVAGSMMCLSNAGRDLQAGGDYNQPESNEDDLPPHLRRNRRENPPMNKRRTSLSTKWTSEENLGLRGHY

[11] = biological target: Lysine-specific demethylase 4C (Homo sapiens, UniProt Q9H3R0); assay: GASC-1 (JMJD2C) histone demethylase inhibitors, dose response, biochemical, DELFIA europium, cherry-picked samples (AID 488835); format: functional
[12] = growth suppression of PTEN-null colon cells, dose response, cell-based, HCT116 PTEN knockout (AID 1047); format: functional;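 further: HCT116 colon tumor cells with PTEN knocked out; cells exposed to compound for 60 hours before readout; potency for loss of cell viability measured by luminescence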
[13] = growth suppression of beta-catenin-knockout colon cells, dose response, cell-based, HCT116, human colon tumor (AID 1045); format: functional;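 further: HCT116 colon tumor cells with beta catenin knocked out; cells exposed to compound for 60 hours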
Cytochrome P450 2C19 = Cytochrome P450 2C19 (Homo sapiens, UniProt P33261); assay: Cytochrome panel assay with activity outcomes. Panel member name: p450-cyp2c19 Compounds with AC50 equal or less than 10 uM are considered active; format: functional; conditions: read-out: AC50
Cytochrome P450 3A4 = Cytochrome P450 3A4 (Homo sapiens, UniProt P08684);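 further: CYP3A4 tested as one member of a cytochrome P450 panel screen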
[14] = biological target: Sphingosine 1-phosphate receptor 1 (Homo sapiens, UniProt P21453); assay: Fluorescence-based counterscreen assay for S1P4 agonists: Cell-based dose response high throughput screening assay to identify agonists of the Sphingosine 1-Phosphate Receptor 1 (S1P1). [Related pubchem assays (depositor defined):AID1509, AID1523, AID1801, AID463107, AID463118, AID463119, AID463122, AID463123, AID463129, AID463225, AID504400, AID504460]; format: functional
[15] = system: Streptococcus sp. 'group A'; assay: growth inhibition of control SK(-) GAS strain, dose response, counter-screen for streptokinase expression inhibitor project, luminescence, kanamycin, BacTiterGlo, confirmation (AID 1900); format: functional, organism-based
Streptokinase A = biological target: T8, Streptokinase A (Streptococcus pyogenes serotype M1, UniProt P10520); assay: S. pyogenes streptokinase expression inhibitors, potency, dose response, plasminogen activation absorbance, OD405 (AID 1914); format: functional, Streptococcus pyogenes M1 GAS;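 further: secreted streptokinase activity via plasminogen activation per viability signal from cell pellet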
T8 sequence (P10520 whole entry): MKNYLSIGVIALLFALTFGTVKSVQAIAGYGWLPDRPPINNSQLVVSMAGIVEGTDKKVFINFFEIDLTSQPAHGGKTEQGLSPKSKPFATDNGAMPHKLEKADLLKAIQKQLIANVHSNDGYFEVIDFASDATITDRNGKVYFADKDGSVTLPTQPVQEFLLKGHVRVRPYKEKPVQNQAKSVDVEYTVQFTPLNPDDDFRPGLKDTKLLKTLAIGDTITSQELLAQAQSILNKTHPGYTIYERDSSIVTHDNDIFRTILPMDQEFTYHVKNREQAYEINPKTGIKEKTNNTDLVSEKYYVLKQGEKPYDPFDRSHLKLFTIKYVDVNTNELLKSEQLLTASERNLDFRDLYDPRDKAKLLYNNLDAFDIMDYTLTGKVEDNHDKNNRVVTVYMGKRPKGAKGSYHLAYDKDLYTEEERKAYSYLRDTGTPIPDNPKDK

[16] = biological target: Sphingosine 1-phosphate receptor 4 (Homo sapiens, UniProt O95977); assay: Fluorescence dose response cell-based high throughput screening assay for agonists of the Sphingosine 1-Phosphate Receptor 4 (S1P4). [Related pubchem assays: 1509 (Primary screen.), 1523 (Confirmation screen in triplicates.)]; format: functional
Streptococcus = assay: Group A Streptococcus viability loss, dose response, counter-screen for streptokinase expression inhibitor project, luminescence, BacTiterGlo (AID 1915); format: functional, organism-based;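 further: potency for reduction of bacterial viability or growth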

T2 sequence (Q9HC97 whole entry): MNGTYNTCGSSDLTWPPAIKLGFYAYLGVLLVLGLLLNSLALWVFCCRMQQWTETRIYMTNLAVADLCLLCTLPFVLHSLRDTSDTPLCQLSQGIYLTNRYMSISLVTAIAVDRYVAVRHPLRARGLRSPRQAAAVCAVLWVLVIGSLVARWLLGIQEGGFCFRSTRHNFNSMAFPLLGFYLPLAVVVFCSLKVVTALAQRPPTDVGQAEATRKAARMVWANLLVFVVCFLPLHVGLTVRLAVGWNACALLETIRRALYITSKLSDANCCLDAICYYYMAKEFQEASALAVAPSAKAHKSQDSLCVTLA
T3 sequence (P34972 whole entry): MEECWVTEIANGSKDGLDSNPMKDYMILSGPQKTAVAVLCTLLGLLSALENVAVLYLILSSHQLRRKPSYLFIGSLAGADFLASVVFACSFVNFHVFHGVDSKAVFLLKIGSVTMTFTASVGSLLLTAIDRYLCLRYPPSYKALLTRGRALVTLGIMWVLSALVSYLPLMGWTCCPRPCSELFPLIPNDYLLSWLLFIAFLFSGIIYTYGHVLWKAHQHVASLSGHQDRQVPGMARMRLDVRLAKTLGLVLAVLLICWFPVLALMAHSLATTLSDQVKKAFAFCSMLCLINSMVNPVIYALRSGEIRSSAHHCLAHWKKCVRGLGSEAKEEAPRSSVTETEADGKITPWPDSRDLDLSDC
T1 sequence (P21554 whole entry): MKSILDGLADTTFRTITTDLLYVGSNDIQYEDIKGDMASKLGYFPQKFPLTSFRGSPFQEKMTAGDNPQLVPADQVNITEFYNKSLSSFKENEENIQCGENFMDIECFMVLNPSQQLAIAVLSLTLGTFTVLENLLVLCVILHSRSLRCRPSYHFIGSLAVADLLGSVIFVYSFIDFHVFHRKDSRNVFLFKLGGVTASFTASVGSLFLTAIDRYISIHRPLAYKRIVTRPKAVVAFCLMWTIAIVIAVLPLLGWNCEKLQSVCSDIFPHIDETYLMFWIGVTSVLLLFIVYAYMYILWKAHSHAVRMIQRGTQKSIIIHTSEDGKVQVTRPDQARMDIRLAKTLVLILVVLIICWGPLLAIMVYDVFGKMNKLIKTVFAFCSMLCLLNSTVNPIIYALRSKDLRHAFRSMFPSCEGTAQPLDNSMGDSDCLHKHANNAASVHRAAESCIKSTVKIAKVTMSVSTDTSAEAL
G-protein coupled receptor 55, sequence (Q9Y2T6 whole entry): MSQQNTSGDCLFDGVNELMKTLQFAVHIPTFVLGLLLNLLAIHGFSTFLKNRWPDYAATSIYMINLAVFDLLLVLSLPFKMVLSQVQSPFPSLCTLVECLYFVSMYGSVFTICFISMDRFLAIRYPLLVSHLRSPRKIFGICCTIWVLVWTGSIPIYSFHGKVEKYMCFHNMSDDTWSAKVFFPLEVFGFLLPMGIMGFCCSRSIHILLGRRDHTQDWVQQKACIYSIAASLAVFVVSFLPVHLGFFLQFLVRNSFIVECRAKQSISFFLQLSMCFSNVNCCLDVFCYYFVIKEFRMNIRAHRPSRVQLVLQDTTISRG
Lysine-specific demethylase 4C, sequence (Q9H3R0 whole entry): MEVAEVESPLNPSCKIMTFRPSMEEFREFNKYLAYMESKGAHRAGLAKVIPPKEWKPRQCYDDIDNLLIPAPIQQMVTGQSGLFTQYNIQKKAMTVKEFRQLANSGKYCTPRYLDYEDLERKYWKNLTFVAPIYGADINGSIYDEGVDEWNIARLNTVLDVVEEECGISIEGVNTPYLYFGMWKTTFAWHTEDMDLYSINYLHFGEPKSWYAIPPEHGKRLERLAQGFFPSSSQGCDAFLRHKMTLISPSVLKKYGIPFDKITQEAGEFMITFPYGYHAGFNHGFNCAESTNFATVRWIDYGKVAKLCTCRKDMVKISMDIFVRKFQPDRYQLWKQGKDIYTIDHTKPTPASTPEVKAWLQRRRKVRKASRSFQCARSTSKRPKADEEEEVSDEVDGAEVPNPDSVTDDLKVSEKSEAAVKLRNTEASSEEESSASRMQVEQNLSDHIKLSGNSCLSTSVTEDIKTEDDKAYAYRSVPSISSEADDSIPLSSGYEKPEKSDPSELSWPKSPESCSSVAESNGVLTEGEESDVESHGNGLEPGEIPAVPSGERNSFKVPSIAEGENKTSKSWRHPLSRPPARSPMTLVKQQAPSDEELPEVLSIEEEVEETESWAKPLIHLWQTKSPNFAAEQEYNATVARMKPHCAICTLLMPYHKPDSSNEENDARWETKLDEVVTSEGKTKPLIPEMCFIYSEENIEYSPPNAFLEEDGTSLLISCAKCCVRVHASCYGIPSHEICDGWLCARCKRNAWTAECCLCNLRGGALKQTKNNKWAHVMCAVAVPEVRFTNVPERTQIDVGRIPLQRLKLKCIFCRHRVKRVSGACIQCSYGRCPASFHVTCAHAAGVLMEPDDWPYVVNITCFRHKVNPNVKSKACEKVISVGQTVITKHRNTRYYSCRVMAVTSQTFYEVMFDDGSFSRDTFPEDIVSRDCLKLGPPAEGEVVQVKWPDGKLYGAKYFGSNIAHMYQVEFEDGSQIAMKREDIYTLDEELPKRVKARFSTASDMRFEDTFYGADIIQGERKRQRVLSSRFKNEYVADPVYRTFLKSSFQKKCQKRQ
Sphingosine 1-phosphate receptor 4, sequence (O95977 whole entry): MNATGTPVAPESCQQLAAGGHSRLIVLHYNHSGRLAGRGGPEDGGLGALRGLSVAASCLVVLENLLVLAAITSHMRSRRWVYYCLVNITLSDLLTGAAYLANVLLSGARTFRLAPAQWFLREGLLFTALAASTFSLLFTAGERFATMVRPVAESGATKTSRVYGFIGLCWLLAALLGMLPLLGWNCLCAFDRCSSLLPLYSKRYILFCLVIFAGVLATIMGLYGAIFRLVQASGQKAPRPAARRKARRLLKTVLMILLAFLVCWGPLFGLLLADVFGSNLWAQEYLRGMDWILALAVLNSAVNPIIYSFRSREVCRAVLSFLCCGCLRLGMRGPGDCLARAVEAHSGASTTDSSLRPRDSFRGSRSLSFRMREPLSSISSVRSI
Cytochrome P450 2C19, sequence (P33261 whole entry): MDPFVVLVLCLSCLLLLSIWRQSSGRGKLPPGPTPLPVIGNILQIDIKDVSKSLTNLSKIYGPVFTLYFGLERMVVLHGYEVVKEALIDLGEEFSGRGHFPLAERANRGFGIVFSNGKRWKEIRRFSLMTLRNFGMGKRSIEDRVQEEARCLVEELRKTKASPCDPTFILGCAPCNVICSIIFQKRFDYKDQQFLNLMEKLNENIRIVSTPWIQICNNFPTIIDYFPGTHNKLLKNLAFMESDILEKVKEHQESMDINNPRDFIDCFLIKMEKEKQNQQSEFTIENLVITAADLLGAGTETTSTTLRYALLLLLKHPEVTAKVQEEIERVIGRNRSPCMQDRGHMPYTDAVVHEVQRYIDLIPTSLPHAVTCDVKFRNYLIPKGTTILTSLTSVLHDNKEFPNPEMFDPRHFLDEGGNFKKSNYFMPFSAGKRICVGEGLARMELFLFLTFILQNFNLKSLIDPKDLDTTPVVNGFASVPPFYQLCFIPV
Sphingosine 1-phosphate receptor 1, sequence (P21453 whole entry): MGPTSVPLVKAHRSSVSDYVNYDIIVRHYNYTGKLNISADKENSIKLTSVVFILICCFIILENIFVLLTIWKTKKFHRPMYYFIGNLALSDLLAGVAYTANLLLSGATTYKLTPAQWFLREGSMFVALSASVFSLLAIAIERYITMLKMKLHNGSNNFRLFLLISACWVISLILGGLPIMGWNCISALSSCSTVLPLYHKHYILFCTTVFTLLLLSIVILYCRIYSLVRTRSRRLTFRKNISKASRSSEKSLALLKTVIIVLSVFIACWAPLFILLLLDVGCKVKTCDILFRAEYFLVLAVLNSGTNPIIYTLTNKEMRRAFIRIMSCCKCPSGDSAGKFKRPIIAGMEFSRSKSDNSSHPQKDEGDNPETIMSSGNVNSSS
Cytochrome P450 3A4, sequence (P08684 whole entry): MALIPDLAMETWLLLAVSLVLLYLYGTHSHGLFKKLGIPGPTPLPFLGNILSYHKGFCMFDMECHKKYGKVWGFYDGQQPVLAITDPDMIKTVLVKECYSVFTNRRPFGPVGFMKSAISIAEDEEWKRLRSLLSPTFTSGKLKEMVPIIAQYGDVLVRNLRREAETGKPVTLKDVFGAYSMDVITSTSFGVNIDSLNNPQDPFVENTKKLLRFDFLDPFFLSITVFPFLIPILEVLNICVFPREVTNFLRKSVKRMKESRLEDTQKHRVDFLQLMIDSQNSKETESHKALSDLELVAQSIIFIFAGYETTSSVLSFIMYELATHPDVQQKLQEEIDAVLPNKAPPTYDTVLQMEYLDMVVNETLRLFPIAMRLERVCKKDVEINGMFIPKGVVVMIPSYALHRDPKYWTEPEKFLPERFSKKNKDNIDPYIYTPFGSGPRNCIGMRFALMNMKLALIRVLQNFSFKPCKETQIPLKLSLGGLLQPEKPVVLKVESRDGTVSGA

In the case of `O=C(c1ccco1)N1CCN(c2nc(C3CC3)nc3sc4c(c23)CCCC4)CC1`, the IC50 [1] is reported as 1.74 µM (active), the IC50 (Cannabinoid receptor 1 [2]) is reported as > 32 µM (inactive) and the EC50 [3] is reported as > 32 µM (inactive). For the same molecule, the IC50 (Cannabinoid receptor 2 [4]) was > 32 µM (inactive), the EC50 (Cannabinoid receptor 1 [5]) was > 32 µM (inactive) and the IC50 [6] was > 32 µM (inactive). For the same molecule, the EC50 (Cannabinoid receptor 2 [7]) was > 32 µM (inactive), the AC50 [8] was 2.35 µM (active) and the EC50 (Protein RecA) was 29.6 µM (active).

In the case of `C=CCN1C(=O)NC(=O)/C(=C/c2ccc(OC)c(CSc3ccccn3)c2)C1=O`, the EC50 [9] is reported as > 300 µM (not active), the EC50 [10] is reported as > 300 µM (not active) and the AC50 [11] is reported as 40.1 µM (active).

In the case of `Cc1sc(NC(=O)c2ccc(OCC(C)C)cc2)c(C(N)=O)c1-c1ccc(Cl)cc1Cl`, the EC50 [12] is reported as 18.5 µM (active), the EC50 [13] is reported as 48.2 µM (active) and the AC50 (Cytochrome P450 2C19) is reported as 1.78 µM (inconclusive). The AC50 (Cytochrome P450 3A4) was “inconclusive”.

For `CC(C)C[C@H](NC(=O)c1[nH]cnc1C(=O)NCc1ccccc1)C(=O)OCc1ccccc1`, the EC50 [14] was > 49.8 µM (inactive), the EC50 [15] was 3.55 µM (active) and the EC50 (Streptokinase A) was > 150 µM (not active). The EC50 [16] was 14.4 µM (not active) and the EC50 (Streptococcus) was 20.5 µM (active).
